What was measured:
Brain [1] = experiment: Biodistribution in Wistar rat brain assessed as standard uptake value at 1.7 MBq, iv administered as single dose measured after 5 mins post-injection by gamma counting; format: ADME, organism-based; conditions: in vivo
Femur [2] = experiment: Biodistribution in Wistar rat femur at 1.7 MBq, iv administered as single dose measured after 60 mins post-injection by gamma counting; format: ADME, organism-based; conditions: in vivo, 1 h
Brain [3] = experiment: Biodistribution in Wistar rat brain at 1.7 MBq, iv administered as single dose measured after 10 mins post-injection by gamma counting; format: ADME, organism-based; conditions: in vivo
Lung [4] = experiment: Biodistribution in Wistar rat lung at 1.7 MBq, iv administered as single dose measured after 1 min post-injection by gamma counting; format: ADME, organism-based; conditions: in vivo
Harderian gland [5] = experiment: Biodistribution in Wistar rat harderian gland at 1.7 MBq, iv administered as single dose measured after 1 min post-injection by gamma counting; format: ADME, organism-based; conditions: in vivo
Liver [6] = experiment: Biodistribution in Wistar rat liver assessed as standard uptake value at 1.7 MBq, iv administered as single dose measured after 30 mins post-injection by gamma counting; format: ADME, organism-based; conditions: in vivo, 0.5 h
Spleen [7] = experiment: Biodistribution in Wistar rat spleen at 1.7 MBq, iv administered as single dose measured after 60 mins post-injection by gamma counting; format: ADME, organism-based; conditions: in vivo, 1 h
Harderian gland [8] = experiment: Biodistribution in Wistar rat harderian gland at 1.7 MBq, iv administered as single dose measured after 10 mins post-injection by gamma counting; format: ADME, organism-based; conditions: in vivo
Heart [9] = experiment: Biodistribution in Wistar rat heart at 1.7 MBq, iv administered as single dose measured after 5 mins post-injection by gamma counting; format: ADME, organism-based; conditions: in vivo
Testes [10] = experiment: Biodistribution in Wistar rat testes assessed as standard uptake value at 1.7 MBq, iv administered as single dose measured after 60 mins post-injection by gamma counting; format: ADME, organism-based, Testis; conditions: in vivo, 1 h
Blood = experiment: Metabolic stability in Wistar rat blood at 30 MBq, iv after 60 mins by radio-HPLC analysis; format: ADME, organism-based; conditions: in vivo, 1 h
[11] = Ratio of drug level in liver to blood in Wistar rat at 1.7 MBq, iv administered as single dose measured after 5 mins post-injection; format: ADME, organism-based
Spleen [12] = experiment: Biodistribution in Wistar rat spleen assessed as standard uptake value at 1.7 MBq, iv administered as single dose measured after 10 mins post-injection by gamma counting; format: ADME, organism-based; conditions: in vivo
Femur [13] = experiment: Biodistribution in Wistar rat femur at 1.7 MBq, iv administered as single dose measured after 10 mins post-injection by gamma counting; format: ADME, organism-based; conditions: in vivo
Pancreas [14] = experiment: Biodistribution in Wistar rat pancreas at 1.7 MBq, iv administered as single dose measured after 5 mins post-injection by gamma counting; format: ADME, organism-based; conditions: in vivo
Heart [15] = experiment: Biodistribution in Wistar rat heart assessed as standard uptake value at 1.7 MBq, iv administered as single dose measured after 60 mins post-injection by gamma counting; format: ADME, organism-based; conditions: in vivo, 1 h
[16] = Biodistribution in Wistar rat hair/skin assessed as standard uptake value at 1.7 MBq, iv administered as single dose measured after 30 mins post-injection by gamma counting; format: ADME, organism-based; conditions: in vivo, 0.5 h
Testes [17] = experiment: Biodistribution in Wistar rat testes assessed as standard uptake value at 1.7 MBq, iv administered as single dose measured after 5 mins post-injection by gamma counting; format: ADME, organism-based, Testis; conditions: in vivo
Harderian gland [18] = experiment: Biodistribution in Wistar rat harderian gland assessed as standard uptake value at 1.7 MBq, iv administered as single dose measured after 5 mins post-injection by gamma counting; format: ADME, organism-based; conditions: in vivo
Pancreas [19] = experiment: Biodistribution in Wistar rat pancreas at 1.7 MBq, iv administered as single dose measured after 30 mins post-injection by gamma counting; format: ADME, organism-based; conditions: in vivo, 0.5 h
Kidney = experiment: Biodistribution in Wistar rat kidney at 1.7 MBq, iv administered as single dose measured after 10 mins post-injection by gamma counting; format: ADME, organism-based; conditions: in vivo
[20] = Biodistribution in Wistar rat urine at 1.7 MBq, iv administered as single dose measured after 60 mins post-injection by gamma counting; format: ADME, organism-based; conditions: in vivo, 1 h
Thymus = experiment: Biodistribution in Wistar rat thymus at 1.7 MBq, iv administered as single dose measured after 5 mins post-injection by gamma counting; format: ADME, organism-based; conditions: in vivo
[21] = Biodistribution in Wistar rat adipose tissue assessed as standard uptake value at 1.7 MBq, iv administered as single dose measured after 60 mins post-injection by gamma counting; format: ADME, organism-based; conditions: in vivo, 1 h
[22] = Metabolic stability in Wistar rat blood assessed as compound remaining at 30 MBq, iv after 20 mins by radio-HPLC analysis; format: ADME, organism-based; conditions: read-out: Stability
Adrenal gland [23] = experiment: Biodistribution in Wistar rat adrenal gland assessed as standard uptake value at 1.7 MBq, iv administered as single dose measured after 30 mins post-injection by gamma counting; format: ADME, organism-based; conditions: in vivo, 0.5 h
[24] = Biodistribution in Wistar rat adipose tissue assessed as standard uptake value at 1.7 MBq, iv administered as single dose measured after 10 mins post-injection by gamma counting; format: ADME, organism-based; conditions: in vivo
[25] = Ratio of drug level in harderian gland to blood in Wistar rat at 1.7 MBq, iv administered as single dose measured after 5 mins post-injection; format: ADME, organism-based
[26] = Biodistribution in Wistar rat urine at 1.7 MBq, iv administered as single dose measured after 5 mins post-injection by gamma counting; format: ADME, organism-based; conditions: in vivo
Heart [27] = experiment: Biodistribution in Wistar rat heart at 1.7 MBq, iv administered as single dose measured after 60 mins post-injection by gamma counting; format: ADME, organism-based; conditions: in vivo, 1 h
[28] = Biodistribution in Wistar rat thyroid gland assessed as standard uptake value at 1.7 MBq, iv administered as single dose measured after 1 min post-injection by gamma counting; format: ADME, organism-based; conditions: in vivo
[29] = Phase 1 elimination half life in Wistar rat at 30 MBq, iv by radio-HPLC analysis; format: ADME, organism-based; conditions: in vivo, read-out: beta t1/2 (converted)
Heart [30] = experiment: Biodistribution in Wistar rat heart assessed as standard uptake value at 1.7 MBq, iv administered as single dose measured after 1 min post-injection by gamma counting; format: ADME, organism-based; conditions: in vivo
[31] = Ratio of drug level in kidney to blood in Wistar rat at 1.7 MBq, iv administered as single dose measured after 5 mins post-injection; format: ADME, organism-based
Femur [32] = experiment: Biodistribution in Wistar rat femur assessed as standard uptake value at 1.7 MBq, iv administered as single dose measured after 30 mins post-injection by gamma counting; format: ADME, organism-based; conditions: in vivo, 0.5 h
Spleen [33] = experiment: Biodistribution in Wistar rat spleen at 1.7 MBq, iv administered as single dose measured after 30 mins post-injection by gamma counting; format: ADME, organism-based; conditions: in vivo, 0.5 h
Liver [34] = experiment: Biodistribution in Wistar rat liver at 1.7 MBq, iv administered as single dose measured after 30 mins post-injection by gamma counting; format: ADME, organism-based; conditions: in vivo, 0.5 h
Lung [35] = experiment: Biodistribution in Wistar rat lung assessed as standard uptake value at 1.7 MBq, iv administered as single dose measured after 60 mins post-injection by gamma counting; format: ADME, organism-based; conditions: in vivo, 1 h
Adrenal gland [36] = experiment: Biodistribution in Wistar rat adrenal gland at 1.7 MBq, iv administered as single dose measured after 5 mins post-injection by gamma counting; format: ADME, organism-based; conditions: in vivo
Liver [37] = experiment: Biodistribution in Wistar rat liver at 1.7 MBq, iv administered as single dose measured after 60 mins post-injection by gamma counting; format: ADME, organism-based; conditions: in vivo, 1 h
[38] = Biodistribution in Wistar rat thyroid gland assessed as standard uptake value at 1.7 MBq, iv administered as single dose measured after 10 mins post-injection by gamma counting; format: ADME, organism-based; conditions: in vivo
[39] = Metabolic stability in Wistar rat blood assessed as compound remaining at 30 MBq, iv after 3 mins by radio-HPLC analysis; format: ADME, organism-based; conditions: read-out: Stability
[40] = Ratio of drug level in kidney to blood in Wistar rat at 1.7 MBq, iv administered as single dose measured after 60 mins post-injection; format: ADME, organism-based

O=C1Nc2ccccc2/C1=C/c1ccc([18F])cc1
SUV (Brain [1]): 1.67% | Drug uptake (Femur [2]): 0.11 %ID | Drug uptake (Brain [3]): 1.09 %ID | Drug uptake (Lung [4]): 2.68 %ID | Drug uptake (Harderian gland [5]): 0.29 %ID | SUV (Liver [6]): 1.68% | Drug uptake (Spleen [7]): 0.04 %ID | Drug uptake (Harderian gland [8]): 0.25 %ID | Drug uptake (Heart [9]): 0.54 %ID | SUV (Testes [10]): 0.19% | Stability (Blood): Unstable | Kp at 5 min [11]: 6.7 | SUV (Spleen [12]): 0.52% | Drug uptake (Femur [13]): 0.32 %ID | Drug uptake (Pancreas [14]): 0.38 %ID | SUV (Heart [15]): 0.2% | SUV [16]: 0.48% | SUV (Testes [17]): 0.41% | SUV (Harderian gland [18]): 2.43% | Drug uptake (Pancreas [19]): 0.11 %ID | Drug uptake (Kidney): 2.28 %ID | Drug uptake [20]: 43.53 %ID | Drug uptake (Thymus): 0.34 %ID | SUV [21]: 1.15% | remaining at 20 min [22]: 12% | SUV (Adrenal gland [23]): 1.39% | SUV [24]: 1.26% | Kp at 5 min [25]: 4.4 | Drug uptake [26]: 2.39 %ID | Drug uptake (Heart [27]): 0.08 %ID | SUV [28]: 1.55% | half-life [29]: 8 s | SUV (Heart [30]): 2.52% | Kp at 5 min [31]: 4.7 | SUV (Femur [32]): 0.28% | Drug uptake (Spleen [33]): 0.08 %ID | Drug uptake (Liver [34]): 8.95 %ID | SUV (Lung [35]): 0.27% | Drug uptake (Adrenal gland [36]): 0.17 %ID | Drug uptake (Liver [37]): 5.98 %ID | SUV [38]: 0.75% | remaining at 0.05 h [39]: 54% | Kp at 1 h [40]: 7.6
